Results published in patent EP0194905A1, “5',5'''-P1,P4-diadenosine-tetraphosphate alpha-,beta-phosphorylase and its use in the preparation of isotope-labelled nucleotides” (priority 1985, dated 1986).

Columns and labels:
Ap4A-phosphorylase [1] = molecular target: T1, Ap4A-phosphorylase (Saccharomyces cerevisiae, UniProt P16550); experiment: Ap4A-phosphorylase activity: initial rates of phosphorolysis of Ap4A and related substrates (PEI-cellulose TLC, radioactivity); format: biochemical; settings: for substrat de l'Ap4A-phosphorylase (behaviour as substrate): compounds structurally related to Ap4A, in presence of phosphate; for vitesses de phosphorolyse, % du taux observé pour l'Ap4A: standard incubation medium, 500 uM substrate
T1 construct: l'Ap4A phosphorylase est constituée d'une seule chaîne; endogenous in cells; host or cells: Saccharomyces cerevisiae yeast cells; enzyme purified by ammonium sulfate, DEAE-Sephacel, Sephadex G-100, hydroxyapatite and Sephadex G-75 superfine
T1 sequence (P16550 1-321): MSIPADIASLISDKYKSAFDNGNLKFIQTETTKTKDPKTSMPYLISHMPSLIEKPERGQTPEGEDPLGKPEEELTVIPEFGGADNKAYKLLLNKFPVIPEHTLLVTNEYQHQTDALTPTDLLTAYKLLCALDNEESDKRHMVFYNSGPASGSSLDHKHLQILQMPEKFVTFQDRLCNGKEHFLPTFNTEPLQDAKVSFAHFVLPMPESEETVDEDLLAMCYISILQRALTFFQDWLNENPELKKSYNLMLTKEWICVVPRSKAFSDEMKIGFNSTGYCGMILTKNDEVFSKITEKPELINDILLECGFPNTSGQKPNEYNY
Method: L'activité de l'Ap4A-phosphorylase a été déterminée à 37°C. Le mélange d'incubation standard contenait, dans un volume final de 25 ou 50 µl, du tampon 50 mM acide 4-(2-hydroxyéthyl)-1-pipérazine éthane sulfonique (Hepes)/KOH (pH 8,2), 1 mM 2-mercaptoéthanol, 2 % de glycérol, 500 µM MnCl2, […], 500 uM de [^3H]Ap4A (1 pmol = 20 cpm), de la sérum-albumine bovine (0,4 mg/ml) et une solution d'enzyme diluée de façon appropriée en présence de 2 mg/ml de sérum-albumine bovine. Dans certains cas, l'activité a été suivie à l'aide de [^32P]K2HPO4.
Pour mesurer les vitesses initiales, de phosphorolyse, on a déposé des prélèvements de 2 µl sur des couches minces de polyéthylèneimine-cellulose contenant un indicateur fluorescent (foumies par MERCK) après 2, 4, 8 et 16 min de réaction.
Des standards d'Ap4A et d'ADP ont été ajoutés et les chromatogrammes ont été développés tout d'abord pendant 15 min dans le méthanol à 75 %, puis pendant 1 h dans du chlorure de lithium 0,85 M. Les valeurs Rf des composés standards étaient respectivement de 0,15 (Ap4A) et 0,25 (ADP), la valeur Rf du phosphate était de 0,55. Les taches d'ADP visualisées sous lumière ultraviolette ont été découpées et immergées dans 5 ml de mélange de scintillation et la radioactivité a été mesurée. Au cours des différentes étapes de purification, l'enzyme a été testée en l'absence de radioactivité; les fractions actives ont été afors directement identifiées sur les chromatogrammes sous lumière ultraviolette.
La dégradation enzymatique de l'Ap4A par l'enzyme selon l'invention, c'est-à-dire l'Ap4A-phosphorylase, a été caractérisée par identification des produits de ladite réaction de dégradation par co-migration avec des composés standards authentiques sur des couches minces de polyéthylèneimine-cellulose. Cette identification a été confirmée sur une colonne de Lichrosorb RP-18 (MERCK) en utilisant un système HPLC (chromatographie liquide haute performance) avec une élution isocratique par du phosphate de potassium 25 mM, pH 5,3 selon la méthode de BREVET et al. décrite dans J.Biol.Chem. (1982), 257. 14613-14615. La colonne de chromatographie a été utilisée avec une pompe modèle 112, un injecteur modèle 210 et un détecteur d'absorbance modèle 160 (matériel BECKMAN), en opérant à 254 nm avec une sensibilité de 0,002 unité d'absorbance pleine échelle.

AMP-désaminase = molecular target: T2, AMP-désaminase (Rattus norvegicus, UniProt P10759); settings: enzyme from rat muscle; cited from earlier work
T2 construct: host or cells: rat muscle
T2 sequence (P10759 1-747): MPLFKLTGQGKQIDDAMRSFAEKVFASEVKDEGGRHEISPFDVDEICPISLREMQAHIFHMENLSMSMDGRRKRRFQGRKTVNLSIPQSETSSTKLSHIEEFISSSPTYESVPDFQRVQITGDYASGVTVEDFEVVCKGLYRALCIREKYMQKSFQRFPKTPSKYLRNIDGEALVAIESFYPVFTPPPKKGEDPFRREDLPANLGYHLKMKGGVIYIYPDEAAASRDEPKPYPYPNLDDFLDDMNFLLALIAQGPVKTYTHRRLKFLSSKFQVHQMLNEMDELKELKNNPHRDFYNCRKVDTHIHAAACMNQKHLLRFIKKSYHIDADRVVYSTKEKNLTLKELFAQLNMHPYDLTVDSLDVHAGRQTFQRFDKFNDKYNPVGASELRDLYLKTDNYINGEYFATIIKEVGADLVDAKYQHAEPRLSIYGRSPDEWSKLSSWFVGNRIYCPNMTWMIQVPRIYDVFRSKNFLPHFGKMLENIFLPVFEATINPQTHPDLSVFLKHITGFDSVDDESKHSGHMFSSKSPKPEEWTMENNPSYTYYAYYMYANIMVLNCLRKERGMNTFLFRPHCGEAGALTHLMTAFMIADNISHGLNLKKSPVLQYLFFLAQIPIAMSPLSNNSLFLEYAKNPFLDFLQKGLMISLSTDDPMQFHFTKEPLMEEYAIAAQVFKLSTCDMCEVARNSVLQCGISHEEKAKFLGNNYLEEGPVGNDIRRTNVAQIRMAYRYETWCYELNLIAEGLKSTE

Ap4A-phosphorylase [2] = molecular target: T1, Ap4A-phosphorylase; experiment: NDP-P* exchange reaction catalysed by Ap4A-phosphorylase; format: biochemical; settings: AMPS versus ADP
From the text: On a estimé les constantes de Michaelis Km et les vitesses d'échange pour différents NDP au pH optimum, lequel varie en fonction des substrats. Les résultats obtenus sont rassemblés dans le tableau Il ci-après ainsi que les conditions expérimentales.

GMP-réductase [3] = settings: enzyme from Artemia; cited from earlier work
GMP-réductase [4] = molecular target: T3, GMP-réductase (Homo sapiens, UniProt P36959); settings: enzyme from human erythrocytes; cited from earlier work
T3 construct: host or cells: human erythrocytes
T3 sequence (P36959 1-345): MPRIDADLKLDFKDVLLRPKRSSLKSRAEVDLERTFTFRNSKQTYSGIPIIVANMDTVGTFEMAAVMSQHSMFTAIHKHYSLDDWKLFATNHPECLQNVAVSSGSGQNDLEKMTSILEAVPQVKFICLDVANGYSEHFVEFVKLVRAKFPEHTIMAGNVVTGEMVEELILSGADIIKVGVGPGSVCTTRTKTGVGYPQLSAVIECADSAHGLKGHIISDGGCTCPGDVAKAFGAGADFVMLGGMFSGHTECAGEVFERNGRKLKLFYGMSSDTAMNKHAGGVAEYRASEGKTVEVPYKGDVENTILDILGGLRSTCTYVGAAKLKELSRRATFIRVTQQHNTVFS

Row | substrat de l'Ap4A-phosphorylase (behaviour as substrate) (Ap4A-phosphorylase [1]) | vitesses de phosphorolyse, % du taux observé pour l'Ap4A (Ap4A-phosphorylase [1]) [%] | Compound | also measured
1 | substrat préféré | – | Nc1ncnc2c1ncn2[C@@H]1O[C@H](COP(=O)(O)OP(=O)(O)OP(=O)(O)OP(=O)(O)OC[C@H]2O[C@@H](n3cnc4c(N)ncnc43)[C@H](O)[C@@H]2O)[C@@H](O)[C@H]1O (single isomer, unassigned; diad) [Ap4A, 5',5"'-P^1,P^4-diadénosine-tétraphosphate] | vitesse de la réaction de phosphorolyse (Ap4A-phosphorylase [1]; Ap4A saturant): 36 s⁻¹; effect on activité de l'AMP-désaminase (AMP-désaminase): double l'activité
2 | substrats | 50 | Nc1ncnc2c1ncn2[C@@H]1O[C@H](COP(=O)(O)OP(=O)(O)OP(=O)(O)OP(=O)(O)OP(=O)(O)OC[C@H]2O[C@@H](n3cnc4c(N)ncnc43)[C@H](O)[C@@H]2O)[C@@H](O)[C@H]1O (single isomer, unassigned; diad) [Ap5A, Diadénosine pentaphosphate] | –
3 | ne soient pas des substrats | – | Nc1ncnc2c1ncn2[C@@H]1O[C@H](COP(=O)(O)OP(=O)(O)OP(=O)(O)OC[C@H]2O[C@@H](n3cnc4c(N)ncnc43)[C@H](O)[C@@H]2O)[C@@H](O)[C@H]1O (single isomer, unassigned; diad) [Ap,A, Diadénosine triphosphate] | –
4 | – | – | Nc1ncnc2c1ncn2[C@@H]1O[C@H](COP(=O)(O)OS(=O)(=O)O)[C@@H](O)[C@H]1O [AMPS, adénosine 5'-phosphosulfate] | rapport V/km, fold higher than for ADP (Ap4A-phosphorylase [2]): ~5 fois
5 | substrats | 40 | Nc1nc2c(ncn2[C@@H]2O[C@H](COP(=O)(O)OP(=O)(O)OP(=O)(O)OP(=O)(O)OC[C@H]3O[C@@H](n4cnc5c(=O)[nH]c(N)nc54)[C@H](O)[C@@H]3O)[C@@H](O)[C@H]2O)c(=O)[nH]1 [Gp4G, Diguanosine tétraphosphate] | effect on GMP-réductase (GMP-réductase [3]): effet positif spécifique; effect on GMP-réductase (GMP-réductase [4]): effet positif spécifique
